Read-outs that look alike come from different tables or passages of the source. Square brackets hold non-standard residues; d marks the D form. Peptide text beside a SMILES is read from it. * marks the point of attachment. Dolaproine = CO[C@@H]([C@@H]1CCCN1)[C@@H](C)C(=O)O; Dil = CC[C@H](C)[C@H](NC)[C@@H](CC(=O)O)OC; X1 = C[C@@H](N*)[C@@H](O)c1ccccc1; NMeV = CN[C@H](C(=O)O)C(C)C
What was measured:
[1] = system: MES SA (human uterine sarcoma); assay: cells; settings: 72 h, read-out: IC50 MES SA
[2] = system: MES SA DX (human uterine sarcoma cell line with marked multidrug resistance); assay: cells; settings: 72 h, read-out: IC50 MES SA DX
[3] = system: HEK 293T (human embryonic kidney cancer cell line); assay: cells; settings: 72 h, read-out: IC50 HEK 293T
[4] = system: MES SA (human uterine sarcoma); settings: read-out: IC50 MES SA
[5] = system: MES SA DX (human uterine sarcoma cell line with marked multidrug resistance); settings: read-out: IC50 MES SA DX
[6] = system: HEK 293T (human embryonic kidney cancer cell line); settings: read-out: IC50 HEK 293T

IC50 [1] [nM]	IC50 [2] [nM]	Compound	IC50 [3] [nM]	IC50 [4] [nM]	IC50 [5] [nM]	IC50 [6] [nM]
42	37.8	Cc1cc2c(c3c1[C@H]1O[C@]4(C5OCCCO5)O[C@@H]1[C@@](O)(O3)[C@@]41CO1)C(=O)c1c(O)cccc1C2=O [Trx30, (1S,2S,3aS,4R,13aR)-2-(1,3-Dioxan-2-yl)-11,13a-dihydroxy-5-methyl-3a,13a-dihydro-4H-spiro[2,4-epoxyfuro[3,2-b]naphtho[2,3-h]chromene-1,2′-oxirane]-7,12-dione]	50.5			
6.11	17.4	COc1c2c(c(O)c3c4c(c(C)cc13)C1OC3(C5OCCCO5)OC1[C@@](OC(C)=O)(O4)[C@@]31CO1)C(=O)CCC2 (stereo partly drawn) [Trx14]	6.89			
		COc1c2c(c(O)c3c4c(c(C)cc13)[C@@H]1O[C@@]3(C(OC)OC)O[C@@H]1[C@@](O[C@H]1C[C@@H](O)[C@@](O)(C(C)=O)[C@H](C)O1)(O4)[C@@]31CO1)C(=O)[C@@H](O)C[C@@H]2O[C@H]1C[C@@](C)(O)[C@H](OC(C)=O)[C@H](C)O1 [Trioxacarcin A]		0.74	204	0.702
		CC[C@H](C)[C@@H]([C@@H](CC(=O)N1CCC[C@H]1[C@H](OC)[C@@H](C)C(=O)N[C@H](C)[C@@H](O)c1ccccc1)OC)N(C)C(=O)[C@@H](NC(=O)[C@@H](NC)C(C)C)C(C)C [MMAE, monomethyl auristatin E, reference compound] (H-[NMeV]V[Dil][Dolaproine]-X1)		0.06	> 70	0.08
54.3	33.2	CO[C@@]12Oc3c4c(cc(C)c3[C@H]3O[C@](C5OCCCO5)(O[C@@H]31)[C@]21CO1)C(=O)c1ccc(Cl)c(OC(C)=O)c1C4=O [Trx33, (1S,2S,3aS,4R,13aR)-10-Chloro-2-(1,3-dioxan-2-yl)-13a-methoxy-5-methyl-7,12-dioxo-3a,7,12,13a-tetrahydro-4H-spiro[2,4-epoxyfuro[3,2-b]naphtho[2,3-h]chromene-1,2′-oxiran]-11-yl acetate]	38.8			
3.88	2.18	COCO[C@@]12Oc3c(c(C)cc4c(OC)c5c(c(O)c34)C(=O)CCC5)[C@H]3O[C@](C4OCCO4)(O[C@@H]31)[C@]21CO1 [Trx10, (1S,2S,3aS,4R,13aS)-2-(1,3-Dioxolan-2-yl)-12-hydroxy-7-methoxy-13a-(methoxymethoxy)-5-methyl-3a,4,8,9,10,13a-hexahydro-11H-spiro[2,4-epoxyfuro[3,2-b]naphtho[2,3-h]chromene-1,2′-oxiran]-11-one]	1.51			
1.09	0.65	CO[C@@]12Oc3c4c(cc(C)c3[C@H]3O[C@](C5OCCCO5)(O[C@@H]31)[C@]21CO1)C(=O)c1cccc(O)c1C4=O [Trx31, (1S,2S,3aS,4R,13aR)-2-(1,3-Dioxan-2-yl)-11-hydroxy-13a-methoxy-5-methyl-3a,13a-dihydro-4H-spiro[2,4-epoxyfuro[3,2-b]naphtho[2,3-h]chromene-1,2′-oxirane]-7,12-dione]	1.44			
4.91	3.48	C=CCO[C@@]12Oc3c(c(C)cc4c(OC)c5c(c(O)c34)C(=O)CCC5)[C@H]3O[C@](C4OCCCO4)(O[C@@H]31)[C@]21CO1 [Trx17, (1S,2S,3aS,4R,13aR)-13a-(Allyloxy)-2-(1,3-dioxan-2-yl)-12-hydroxy-7-methoxy-5-methyl-3a,4,8,9,10,13a-hexahydro-11H-spiro[2,4-epoxyfuro[3,2-b]naphtho[2,3-h]chromene-1,2′-oxiran]-11-one]	2.77			
11.1	11.9	CC(=O)Oc1cccc2c1C(=O)c1c(cc(C)c3c1O[C@]1(OC(C)=O)[C@H]4O[C@@](C5OCCCO5)(O[C@H]34)[C@]13CO3)C2=O [Trx28, (1S,2S,3aS,4R,13aS)-2-(1,3-Dioxan-2-yl)-5-methyl-7,12-dioxo-3a,4,7,12-tetrahydro-13aH-spiro[2,4-epoxyfuro[3,2-b]naphtho[2,3-h]chromene-1,2′-oxirane]-11,13a-diyl diacetate]	11.2			
5.96	4.41	CC(=O)Oc1c(Cl)ccc2c1C(=O)c1c(cc(C)c3c1O[C@]1(OC(C)=O)[C@H]4O[C@@](C5OCCCO5)(O[C@H]34)[C@]13CO3)C2=O [Trx32, (1S,2S,3aS,4R,13aS)-10-Chloro-2-(1,3-dioxan-2-yl)-5-methyl-7,12-dioxo-3a,4,7,12-tetrahydro-13aH-spiro[2,4-epoxyfuro[3,2-b]naphtho[2,3-h]chromene-1,2′-oxirane]-11,13a-diyl diacetate]	6.73			
51.9	49.3	COc1c2c(c(O)c3c4c(c(C)cc13)[C@H]1O[C@]3(C5OCCO5)O[C@@H]1[C@@](O)(O4)[C@@]31CO1)C(=O)CCC2 [Trx8, (1S,2S,3aS,4R,13aR)-2-(1,3-Dioxolan-2-yl)-12,13a-dihydroxy-7-methoxy-5-methyl-3a,4,8,9,10,13a-hexahydro-11H-spiro[2,4-epoxyfuro[3,2-b]naphtho[2,3-h]chromene-1,2′-oxiran]-11-one]	30.7			
3.72	5.72	COc1c2c(c(O)c3c4c(c(C)cc13)C1OC3(C5OCCCO5)OC1[C@@](O)(O4)[C@@]31CO1)C(=O)CCC2 (stereo partly drawn) [Trx12]	2.46			
1.44	1.05	CO[C@@]12Oc3c4c(cc(C)c3[C@H]3O[C@](C5OCCCO5)(O[C@@H]31)[C@]21CO1)C(=O)c1cccc(OC(C)=O)c1C4=O [Trx29, (1S,2S,3aS,4R,13aR)-2-(1,3-Dioxan-2-yl)-13a-methoxy-5-methyl-7,12-dioxo-3a,7,12,13a-tetrahydro-4H-spiro[2,4-epoxyfuro[3,2-b]naphtho[2,3-h]chromene-1,2′-oxiran]-11-yl acetate]	1.87			
		COc1c2c(c(O)c3c4c(c(C)cc13)C1OC3(C5OCCCO5)OC1[C@@](OCC=CCO[C@@]15Oc6c(c(C)cc7c(OC)c8c(c(O)c67)C(=O)CCC8)C6OC(C7OCCCO7)(OC61)[C@]51CO1)(O4)[C@@]31CO1)C(=O)CCC2 (stereo partly drawn) [Trx24, (1S,2S,3aS,4R,13aR,1′″S,2′″S,3a′″S,4′″R,13a′″R)-13a,13a′-[(2Z)-but-2-ene-1,4-diylbis(oxy)]bis[2-(1,3-dioxan-2-yl)-12-hydroxy-7-methoxy-5-methyl-3a,4,8,9,10,13a-hexahydro-11H-spiro[2,4-epoxyfuro[3,2-b]naphtho[2,3-h]chromene-1,2′-oxiran]-11-one]]	115	> 1000	> 1000	

Compound	IC50 [1] [nM]	IC50 [2] [nM]	IC50 [3] [nM]	IC50 [4] [nM]	IC50 [5] [nM]	IC50 [6] [nM]
COc1c2c(c(O)c3c4c(c(C)cc13)C1O[C@@]3(C5OCCCO5)OC1[C@@](O[C@H]1C[C@H](O)[C@@](O)([C@@H](C)O)[C@H](C)O1)(O4)[C@@]31CO1)C(=O)CCC2 (stereo partly drawn) [Trx23, (1S,2R,13aS)-2-(1,3-dioxan-2-yl)-12-hydroxy-7-methoxy-5-methyl-11-oxo-3a,4,8,9,10,11-hexahydro-13aH-spiro[2,4-epoxyfuro[3,2-b]naphtho[2,3-h]chromene-1,2′-oxiran]-13a-yl 2,6-dideoxy-4-C-[(1R)-1-hydroxyethyl]-α-L-lyxo-hexopyranoside]	5.85	33.7	2.74			
COc1c2c(c(O)c3c4c(c(C)cc13)C1O[C@@]3(C5OCCCO5)OC1[C@@](O[C@H]1C[C@H](OC(C)=O)[C@@](O)(C(C)=O)[C@H](C)O1)(O4)[C@@]31CO1)C(=O)CCC2 (stereo partly drawn) [Trx20, (1S,2R,13aS)-2-(1,3-dioxan-2-yl)-12-hydroxy-7-methoxy-5-methyl-11-oxo-3a,4,8,9,10,11-hexahydro-13aH-spiro[2,4-epoxyfuro[3,2-b]naphtho[2,3-h]chromene-1,2′-oxiran]-13a-yl 4-C-acetyl-3-O-acetyl-2,6-dideoxy-α-L-lyxo-hexopyranoside]	5.14	52.4	4.31			
C=CCOC(=O)N(C(C)C)[C@H]1CO[C@@H](O[C@@]23Oc4c(c(C)cc5c(OC)c6c(c(O)c45)C(=O)CCC6)C4OC(C5OCCCO5)(OC42)[C@]32CO2)C[C@@H]1OC (stereo partly drawn) [Trx18, (1S,13aS)-2-(1,3-Dioxan-2-yl)-12-hydroxy-7-methoxy-5-methyl-11-oxo-3a,4,8,9,10,11-hexahydro-13aH-spiro[2,4-epoxyfuro[3,2-b]naphtho[2,3-h]chromene-1,2′-oxiran]-13a-yl 4-{[(allyloxy)carbonyl](isopropyl)amino}-2,4-dideoxy-3-O-methyl-α-L-threo-pentopyranoside]	> 1000	> 1000	40.2			
COc1c2c(c(O)c3c4c(c(C)cc13)[C@H]1O[C@]3(C5OCCO5)O[C@@H]1[C@](OC)(O4)[C@@]31CO1)C(=O)CCC2 [Trx9, (1S,2S,3aS,4R,13aS)-2-(1,3-Dioxolan-2-yl)-12-hydroxy-7,13a-dimethoxy-5-methyl-3a,4,8,9,10,13a-hexahydro-11H-spiro[2,4-epoxyfuro[3,2-b]naphtho[2,3-h]chromene-1,2′-oxiran]-11-one]	4.67	2.63	2.04			
COc1c2c(c(O)c3c4c(c(C)cc13)C1O[C@@]3(C5OCCCO5)OC1C(O[C@H]1C[C@H](OC)[C@@H](NC(C)C)CO1)(O4)[C@@]31CO1)C(=O)CCC2 (stereo partly drawn) [Trx19, (1S,2R)-2-(1,3-dioxan-2-yl)-12-hydroxy-7-methoxy-5-methyl-11-oxo-3a,4,8,9,10,11-hexahydro-13aH-spiro[2,4-epoxyfuro[3,2-b]naphtho[2,3-h]chromene-1,2′-oxiran]-13a-yl 2,4-dideoxy-4-(iso-propylamino)-3-O-methyl-α-L-threo-pentopyranoside]	0.96	70.7	0.77			

Reference: patent publication US20210230178A1, “TRIOXACARCIN ANALOGS AND DIMERS AS POTENT ANTICANCER AGENTS” (William Marsh Rice University, priority 2017, published 2021)
